# Data from patent publication US11680298B2, “Method of identifying risk of cancer and therapeutic options” (Agency for Science, Technology and Research, priority 2016, dated 2023).
# Entries after “also recorded” stand apart in the source; their conditions may differ.
# Legend:
# MB468 tumourspheres = experiment: Mammosphere (tumoursphere) formation assay, MB468; format: cell-based; conditions: MB468 cell line
# Description: Mammosphere Formation Assay PDX-derived tumoursphere cells were trypsinized and passed through 40 μm cell strainer to achieve single cell suspensions. 3×10^4 cells were seeded in 6-well ultra-low attachment plates (Corning, N.Y.; CLS3471) in serum-free DMEM/F12 supplemented with N2 and B27 (Gibco, Grand Island, N.Y.), 20 ng/ml epidermal growth factor (MACS, Auburn, Calif.), 20 ng/ml basic fibroblast growth factor (MACS, Auburn, Calif.), 0.2 μM Thiazovivin ([…] Technologies, Vancouver, BC) and penicillin/streptomycin (Gibco, Carlsbad, Calif.). For breast cancer cell lines and MCF10A cell line, 3×10^4 cells were seeded in 6-well ultra-low attachment plates in Mammocult medium (Stem Cell Technologies, Vancouver, BC, Canada), supplemented with fresh hydrocortisone (0.5 μg/ml) and heparin (1:500). Mammospheres were maintained at 37° C. with 5% CO2 and topped up with medium every 3 days. After 7-9 days, mammospheres were stained with INT (2-(4-iodophenyl)-3-(4-nitrophenyl)-5-phenyl-2H-tetrazolium chloride, Sigma-Aldrich) and quantified. Imaging and quantification were done using GelCount apparatus and associated software (Oxford Optronix, Abingdon, UK). […] Cell Proliferation Assay
# EL12-58 PDX tumours = experiment: Neoadjuvant breast cancer PDX model of tumour recurrence; format: in vivo, NOD-SCID mice; conditions: after paclitaxel-induced regression and surgery; 20 mg/kg paclitaxel, 150 mg/kg pacritinib or both
# S100A7/8/9 [1] = experiment: Real time RT-PCR of S100A7/8/9 expression in HCC70 xenograft; format: in vivo, NOD-SCID mice; conditions: HCC70 xenograft (n=4) treated with pacritinib
# Description: (§1) Mice were then dosed daily by oral gavage for 21 days. Tumour growth was monitored for 1 month.
# (§2) Total RNA was isolated using TRIzol® reagent (Life Technologies, Carlsbad, Calif.; 15596026) and purified with Direct-zol™ RNA MiniPrep (Zymo Research, Irvine, Calif.; R2050). Reverse transcription and quantitative PCR assays were performed using High-Capacity cDNA Reverse Transcription Kit (Applied Biosystems, Carlsbad, Calif.; 4368813) and KAPA SyBr Fast qPCR kit (KAPA Biosystems, Wilmington, Mass.; KK4601). For quantification of mRNA levels, GAPDH level was used as an internal control. All reactions were analysed in an Applied Biosystems PRISM 7500 Fast Real-Time PCR system in 96-well plate format. For RNA extraction of xenograft tumours, snap frozen samples were resuspended in TRIzol® reagent and homogenized with QIAGEN TissueLyzer II as described by the manufacturer, followed by purification with Direct-zolI™ RNA MiniPrep.
# HCC1937 = experiment: Tumoursphere growth, HCC1937; format: cell-based; conditions: HCC1937, negative for 1q21.3 amplification, high phospho-IRAK1 and phospho-JAK2
# Description: (§3) For this purpose, the 1q21.3 gene amplification in a series of breast cancer cell lines was profiled using ddPCR (FIG. 6A). Of note, 1q21.3 status in these cell lines was in general correlated with phospho-IRAK1 and expression of S100A8/9 (FIG. 6B and FIG. 14A), but not with phospho-JAK2 status (FIG. 6B).
# (§4) Mammosphere Formation Assay PDX-derived tumoursphere cells were trypsinized and passed through 40 μm cell strainer to achieve single cell suspensions. 3×10^4 cells were seeded in 6-well ultra-low attachment plates (Corning, N.Y.; CLS3471) in serum-free DMEM/F12 supplemented with N2 and B27 (Gibco, Grand Island, N.Y.), 20 ng/ml epidermal growth factor (MACS, Auburn, Calif.), 20 ng/ml basic fibroblast growth factor (MACS, Auburn, Calif.), 0.2 μM Thiazovivin ([…] Technologies, Vancouver, BC) and penicillin/streptomycin (Gibco, Carlsbad, Calif.). For breast cancer cell lines and MCF10A cell line, 3×10^4 cells were seeded in 6-well ultra-low attachment plates in Mammocult medium (Stem Cell Technologies, Vancouver, BC, Canada), supplemented with fresh hydrocortisone (0.5 μg/ml) and heparin (1:500). […] After 7-9 days, mammospheres were stained with INT (2-(4-iodophenyl)-3-(4-nitrophenyl)-5-phenyl-2H-tetrazolium chloride, Sigma-Aldrich) and quantified. Imaging and quantification were done using GelCount apparatus and associated software (Oxford Optronix, Abingdon, UK). […]
# IRAK1 = IRAK1 (Homo sapiens, UniProt P51617); experiment: Western blot of phospho-IRAK1 in HCC70 xenograft; format: in vivo, NOD-SCID mice; design: For protein extraction of xenograft tumours, snap frozen samples were resuspended in RIPA buffer; from tissue; host or cells: HCC70 xenograft tumour from NOD-SCID mice; conditions: HCC70 xenograft (n=4) treated with pacritinib
# Sequence of IRAK1 (P51617 whole entry): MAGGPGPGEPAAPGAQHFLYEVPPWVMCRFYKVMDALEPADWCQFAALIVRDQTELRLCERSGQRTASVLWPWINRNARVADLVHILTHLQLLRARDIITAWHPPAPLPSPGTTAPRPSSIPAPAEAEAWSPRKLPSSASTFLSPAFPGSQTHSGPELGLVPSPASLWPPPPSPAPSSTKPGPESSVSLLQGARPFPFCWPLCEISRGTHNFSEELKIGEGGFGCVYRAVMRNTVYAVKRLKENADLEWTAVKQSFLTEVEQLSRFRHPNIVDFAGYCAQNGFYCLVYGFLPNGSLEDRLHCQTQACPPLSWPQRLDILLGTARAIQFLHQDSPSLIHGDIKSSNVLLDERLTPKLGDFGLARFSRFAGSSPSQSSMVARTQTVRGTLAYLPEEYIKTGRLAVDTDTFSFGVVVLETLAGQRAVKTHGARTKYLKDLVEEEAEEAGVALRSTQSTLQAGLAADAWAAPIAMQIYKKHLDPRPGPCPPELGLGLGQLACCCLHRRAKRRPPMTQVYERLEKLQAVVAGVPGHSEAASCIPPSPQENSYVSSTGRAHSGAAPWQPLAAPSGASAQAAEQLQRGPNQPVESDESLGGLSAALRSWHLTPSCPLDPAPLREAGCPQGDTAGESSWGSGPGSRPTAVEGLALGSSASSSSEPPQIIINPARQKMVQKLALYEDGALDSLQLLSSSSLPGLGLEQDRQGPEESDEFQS
# Description: as §1
# All immunoblots shown in this specification represent at least two independent experiments. In brief, cells were washed with PBS and lysed in RIPA buffer supplemented with protease and phosphatase inhibitors and further sonicated using an XL2000 Microson Ultrasonice Processor (Misonix). Equal amounts of protein extract were separated on SDS-polyacrylamided gels and transferred to PVDF membranes. Membranes were further blocked with 5% milk or BSA, and then probed with the following antibodies: anti-IRAK1 was purchased from Santa Cruz Biotechnology (Santa Cruz, Calif.; sc-7883), anti-phospho-IRAK1 (T209) was purchased from Assay Biotech (Sunnyvale, Calif.; A1074), anti-JAK2 (Danvers, Mass.; #3230) and anti-phospho-JAK2 ([…]) (Danvers, Mass.: #3774) were purchased from Cell Signaling Technology, anti-actin was purchased from Sigma Aldrich CA; A5441). For protein extraction of xenograft tumours, snap frozen samples were resuspended in RIPA buffer supplemented with protease and phosphatase inhibitors and homogenized with QIAGEN TissueLyzer II as described by the manufacturer, followed by immunoblotting as described above.
# HCC70 xenograft tumours = experiment: In vivo pacritinib sensitivity test, HCC70 orthotopic xenograft; design: species or system NOD-SCID mice; conditions: 1q21.3-amplified HCC70; 50, 100 and 150 mg/kg pacritinib daily by oral gavage for 21 days
# S100A7/8/9 [2] = experiment: Real-time PCR analysis of S100A7/8/9 gene expression in cells; format: cell-based, human
# Description: as §2, with “Direct-zolTM” for “Direct-zol™”, “[…]).” for “R2050).”, “Direct-zolITM” for “Direct-zolI™”
# [3] = test system: ER positive and ER negative breast cancer cell lines tumourspheres; experiment: Tumoursphere growth in breast cancer cell lines with or without 1q21.3 amplification; format: cell-based; conditions: increasing dose of pacritinib
# Description: as §3, §4
smiles,measurement,setting,value
C1=C/COCc2cc(ccc2OCCN2CCCC2)Nc2nccc(n2)-c2cccc(c2)COC/1 [pacritinib],number of tumourspheres,MB468 tumourspheres,strong tumoursphere inhibitory effect
same,tumour regrowth after surgical removal of residual tumour,EL12-58 PDX tumours,slowed down
same,S100A7/8/9 expression in xenograft,S100A7/8/9 [1],downregulation
same,sensitivity to pacritinib,HCC1937,sensitive to pacritinib treatment
same,phospho-IRAK1 level in xenograft,IRAK1,downregulation of phospho-IRAK1
same,tumour growth,HCC70 xenograft tumours,substantial inhibition in tumour growth
same,expression of S100A7/8/9,"S100A7/8/9 [2]; MB468 cells, 24 hr pacritinib treatment",reduced the expression of S100A7/8/9 in MB468 cells in a dose-dependent manner
same,S100A7 expression,S100A7/8/9 [2]; across the cell models tested,seemed to be cell specific
same,expressions of S100A8 and S100A9,S100A7/8/9 [2]; across the cell models tested,consistently reduced
same,expression of S100A7/8/9,"S100A7/8/9 [2]; patient-derived tumoursphere cells, 24 hr, pacritinib 2.5 μM",reduced expression of S100A7/8/9
same,"tumoursphere growth, 1q21.3 amplified versus non-amplified cell lines",[3],preferential growth inhibition of breast cancer cells containing amplified S100A8 and/or S100A9 genes; also recorded: more effective in impairing tumoursphere growth in cancer cell lines positive for 1q21.3 amplification compared to negative cell lines; also recorded: more sensitive to pacritinib treatment compared to cancer cells without 1q21.3 amplification
